From ChEMBL document CHEMBL5291721, “A preclinical secondary pharmacology resource illuminates target-adverse drug reaction associations of marketed drugs” (Nat Commun, 2023)

What was measured:
Progesterone receptor = target: T1, Progesterone receptor (Homo sapiens, UniProt P06401)
T1 sequence (P06401 whole entry): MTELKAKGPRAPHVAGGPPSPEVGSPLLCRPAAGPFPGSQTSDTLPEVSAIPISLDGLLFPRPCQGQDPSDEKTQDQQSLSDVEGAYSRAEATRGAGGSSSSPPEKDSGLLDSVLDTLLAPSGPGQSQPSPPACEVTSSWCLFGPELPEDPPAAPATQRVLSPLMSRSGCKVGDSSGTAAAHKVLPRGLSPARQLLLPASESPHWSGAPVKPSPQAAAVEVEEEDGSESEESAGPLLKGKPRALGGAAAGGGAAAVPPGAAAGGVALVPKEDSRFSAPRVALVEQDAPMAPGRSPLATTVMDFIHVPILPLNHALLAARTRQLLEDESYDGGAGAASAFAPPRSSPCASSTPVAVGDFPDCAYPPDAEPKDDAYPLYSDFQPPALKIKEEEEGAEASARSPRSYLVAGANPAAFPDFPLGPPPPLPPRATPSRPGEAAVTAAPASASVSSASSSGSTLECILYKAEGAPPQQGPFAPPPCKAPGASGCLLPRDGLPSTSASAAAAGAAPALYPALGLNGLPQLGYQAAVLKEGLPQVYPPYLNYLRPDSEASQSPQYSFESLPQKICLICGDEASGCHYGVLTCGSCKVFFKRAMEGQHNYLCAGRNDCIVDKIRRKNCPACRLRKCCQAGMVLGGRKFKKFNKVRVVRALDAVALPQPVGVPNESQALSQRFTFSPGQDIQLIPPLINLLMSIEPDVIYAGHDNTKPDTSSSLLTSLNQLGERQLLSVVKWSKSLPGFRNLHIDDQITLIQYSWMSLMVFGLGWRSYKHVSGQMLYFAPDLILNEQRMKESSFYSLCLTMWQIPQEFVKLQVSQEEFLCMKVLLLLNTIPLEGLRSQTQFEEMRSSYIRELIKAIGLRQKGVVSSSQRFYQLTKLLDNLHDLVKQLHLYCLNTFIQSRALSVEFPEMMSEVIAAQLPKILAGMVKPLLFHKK

D(1A) dopamine receptor = D(1A) dopamine receptor (Homo sapiens, UniProt P21728)
Sequence of D(1A) dopamine receptor (P21728 whole entry): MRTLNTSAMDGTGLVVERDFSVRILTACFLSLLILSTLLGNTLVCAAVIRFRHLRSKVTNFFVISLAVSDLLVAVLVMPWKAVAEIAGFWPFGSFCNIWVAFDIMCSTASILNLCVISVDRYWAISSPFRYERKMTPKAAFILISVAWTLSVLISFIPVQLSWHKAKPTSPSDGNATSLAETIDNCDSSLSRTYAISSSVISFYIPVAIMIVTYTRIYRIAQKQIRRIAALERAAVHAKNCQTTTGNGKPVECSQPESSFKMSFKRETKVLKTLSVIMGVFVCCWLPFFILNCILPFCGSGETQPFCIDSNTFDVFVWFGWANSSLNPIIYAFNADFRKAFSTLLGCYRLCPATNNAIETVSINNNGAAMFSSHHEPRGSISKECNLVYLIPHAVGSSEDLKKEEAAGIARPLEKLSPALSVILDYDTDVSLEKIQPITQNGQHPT

Estrogen receptor = target: T2, Estrogen receptor (Homo sapiens, UniProt P03372); assay type: functional
T2 sequence (P03372 whole entry): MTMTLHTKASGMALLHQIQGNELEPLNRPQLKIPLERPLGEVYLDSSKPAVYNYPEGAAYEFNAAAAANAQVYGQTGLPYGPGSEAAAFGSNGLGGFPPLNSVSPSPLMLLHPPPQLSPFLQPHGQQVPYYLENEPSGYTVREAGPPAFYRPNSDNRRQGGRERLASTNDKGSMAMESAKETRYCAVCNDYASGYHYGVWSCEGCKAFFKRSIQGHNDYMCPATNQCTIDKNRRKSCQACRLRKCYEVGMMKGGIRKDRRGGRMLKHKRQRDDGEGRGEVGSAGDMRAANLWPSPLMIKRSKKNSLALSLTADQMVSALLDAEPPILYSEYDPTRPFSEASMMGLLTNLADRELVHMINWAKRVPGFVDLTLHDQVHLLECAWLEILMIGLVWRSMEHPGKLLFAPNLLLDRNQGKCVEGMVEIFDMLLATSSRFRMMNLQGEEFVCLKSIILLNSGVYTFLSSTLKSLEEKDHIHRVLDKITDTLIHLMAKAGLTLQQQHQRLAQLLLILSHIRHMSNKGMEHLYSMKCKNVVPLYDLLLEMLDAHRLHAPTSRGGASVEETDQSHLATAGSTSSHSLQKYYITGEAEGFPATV

[1] = target: T3, Retinoic acid receptor beta (Homo sapiens, UniProt P10826); assay type: functional, cell-based
T3 sequence (P10826 whole entry): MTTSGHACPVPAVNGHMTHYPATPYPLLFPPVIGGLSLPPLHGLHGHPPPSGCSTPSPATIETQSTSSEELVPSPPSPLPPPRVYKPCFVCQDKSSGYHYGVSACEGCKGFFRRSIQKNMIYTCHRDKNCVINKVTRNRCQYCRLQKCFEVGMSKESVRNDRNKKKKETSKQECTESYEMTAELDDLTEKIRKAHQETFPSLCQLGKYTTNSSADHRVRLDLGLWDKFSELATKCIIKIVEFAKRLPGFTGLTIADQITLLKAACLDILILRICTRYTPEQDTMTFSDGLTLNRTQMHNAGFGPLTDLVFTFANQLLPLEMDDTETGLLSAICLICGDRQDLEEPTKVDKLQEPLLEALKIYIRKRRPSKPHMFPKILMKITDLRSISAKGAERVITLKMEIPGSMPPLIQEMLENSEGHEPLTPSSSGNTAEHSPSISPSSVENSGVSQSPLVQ

[2] = target: T4, Retinoic acid receptor gamma (Homo sapiens, UniProt P13631); assay type: functional, cell-based
T4 sequence (P13631 whole entry): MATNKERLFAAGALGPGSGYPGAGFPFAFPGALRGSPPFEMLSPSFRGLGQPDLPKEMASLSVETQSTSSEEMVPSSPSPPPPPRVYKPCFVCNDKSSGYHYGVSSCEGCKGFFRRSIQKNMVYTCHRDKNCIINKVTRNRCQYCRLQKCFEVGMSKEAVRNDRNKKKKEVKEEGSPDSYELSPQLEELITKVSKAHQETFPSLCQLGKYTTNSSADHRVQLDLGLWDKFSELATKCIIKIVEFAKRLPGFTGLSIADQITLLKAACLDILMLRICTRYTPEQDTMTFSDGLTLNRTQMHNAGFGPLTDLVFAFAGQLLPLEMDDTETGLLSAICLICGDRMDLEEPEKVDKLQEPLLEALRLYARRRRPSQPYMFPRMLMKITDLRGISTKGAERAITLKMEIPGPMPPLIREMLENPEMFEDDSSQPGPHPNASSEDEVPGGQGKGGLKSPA
Further: assay procedure not described here.

Molecule: Nc1nc2ccc(OC(F)(F)F)cc2s1 [RILUZOLE]
- AC50 (Progesterone receptor): > 30 µM

Molecule: BIVALIRUDIN
- AC50 (Progesterone receptor): > 30 µM
- AC50 (D(1A) dopamine receptor): > 30 µM

Molecule: [H]/N=C(/N)c1ccc(NCc2nc3cc(C(=O)N(CCC(=O)O)c4ccccn4)ccc3n2C)cc1 [DABIGATRAN]
- AC50 (Estrogen receptor): > 30 µM

Molecule: CC(C)c1c(C(=O)Nc2ccccc2)c(-c2ccccc2)c(-c2ccc(F)cc2)n1CC[C@@H](O)C[C@@H](O)CC(=O)O [ATORVASTATIN]
- AC50 [1]: > 30 µM
- AC50 [2]: > 30 µM
